The record followed here is ChEMBL document CHEMBL1201862, “PubChem BioAssay data set” (2004).

Holding throughout (assay): growth of human tumour cells (NCI), 48 h
For assay [1], the system named is OVCAR-3.
In assay [2] the test system is PC-3.
Assay [3] has as its system HL-60.
In assay [4] the test system is Hs-578T.
Assay [5] has as its system SR.
Assay [6] relates to RPMI-8226.
Assay [7] has as its system UO-31.
Assay [8] concerns SNB-75.
Assay [9] has as its system 786-0.
The subject of assay [10] is A498.
The subject of assay [11] is DU-145.
Assay [12] relates to M14.
In assay [13] the test system is OVCAR-8.
The test system of assay [14] is SK-MEL-5.
For assay [15], the system named is UACC-257.
The subject of assay [16] is COLO 205.
Assay [17] has as its system U-251.
The subject of assay [18] is TK-10.
For assay [19], the system named is T47D.
The test system of assay [20] is LOX IMVI.

SMILES strings stand for the structures.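 These data come from cells grown in 96-well plates and exposed to compound for 48 hours at five concentrations. GI50: concentration for 50% inhibition of growth.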 Activity calls are given as the source filed them. Cut-off read from the data, not from the text of the source: active = GI50 up to about 1.1 µM and inactive = higher. Where a SMILES comes first, the peptide text is derived from it. [ ]: non-standard residue; d: D form. The star is where a group is joined. NMeAc5c = CNC1(C(=O)O)CCCC1; Boc = CC(C)(C)OC(=O)*; OBn = c1ccc(CO*)cc1

For `CCCCCCCCOc1ccc(/C=C/C2=[N+](CCO)CCO2)cc1`, the GI50 in assay [1] was 3.15 µM (inactive); in [2], 2.94 µM (inactive); in [3] it was 2.62 µM (inactive); in assay [4], 3.53 µM (inactive); in [5], 2.19 µM (inactive); in assay [6] it was 2.2 µM (inactive). Besides, the GI50 is 12.3 µM (inactive) in [7]; 2.67 µM (inactive) in assay [8]; 3.72 µM (inactive) in [9]; 2.9 µM (inactive) in [10]; 5 µM (inactive) in assay [11]; 3.8 µM (inactive) in assay [12]. In addition, the GI50 in assay [13] is 3.14 µM (inactive); in assay [14] it was 2.56 µM (inactive); in [15] it was 3.38 µM (inactive); in assay [16], 2.42 µM (inactive); in [17], 2.86 µM (inactive); in [18], 3.36 µM (inactive). Also, the GI50 in [19] is 3.35 µM (inactive).
On to `CC(C)(C)OC(=O)NCC(C#N)CNC(=O)OC(C)(C)C`, for which the GI50 in assay [1], in [2], in assay [3], in assay [4], in assay [5] and in assay [6] was > 100 µM (inactive) each time. The GI50 in assay [7], in assay [9], in assay [10], in assay [11], in assay [12] and in assay [13] was > 100 µM (inactive) each time. The GI50 in assay [14], in assay [15], in assay [16], in assay [17], in [20] and in assay [18] was > 100 µM (inactive) each time. In assay [19], the GI50 was > 100 µM (inactive).
As for `CCCCNC(=O)Cn1c2ccc(Br)cc2c2nc3ccccc3nc21`, the GI50 in [1] was > 100 µM (inactive); in [2], > 100 µM (inactive); in assay [4], > 100 µM (inactive); in assay [5], 0.589 µM (active); in [6], > 100 µM (inactive); in [7], > 100 µM (inactive). Also, the GI50 in [8] is 51.9 µM (inactive); in assay [9], > 100 µM (inactive); in assay [10], > 100 µM (inactive); in assay [11] it was > 100 µM (inactive); in assay [12] it was > 100 µM (inactive); in [13], 33.3 µM (inactive). Moreover, the GI50 in assay [14], in [15], in assay [16], in assay [17], in [20] and in assay [18] was > 100 µM (inactive) in each case. In [19], the GI50 was 93.8 µM (inactive).
Regarding `CC1(C)CCCC(C)(C2CCC3(C)C2C(O)CC2C4(C)CCC(O)C(C)(C)C4CCC23C)O1` (stereo not drawn), the GI50 in assay [2] was > 100 µM (inactive); in assay [3], 26.4 µM (inactive); in assay [4], 20.7 µM (inactive); in assay [5], > 100 µM (inactive); in assay [7], > 100 µM (inactive); in assay [8], 29.4 µM (inactive). In addition, the GI50 was 75.7 µM (inactive) in assay [9]; > 100 µM (inactive) in [10]; > 100 µM (inactive) in assay [11]; > 100 µM (inactive) in assay [12]; 42.4 µM (inactive) in assay [13]; 47.8 µM (inactive) in assay [14]. Besides, the GI50 in [15] was > 100 µM (inactive); in [16] it was 80.2 µM (inactive); in [17], > 100 µM (inactive); in assay [20], > 100 µM (inactive); in [18], 86.5 µM (inactive); in assay [19] it was > 100 µM (inactive).
For the compound `O=C(O)CSc1ccc(N=C=S)cc1`, the GI50 was 94 µM (inactive) in assay [1]; 73.3 µM (inactive) in assay [2]; 47.5 µM (inactive) in assay [4]; 3.43 µM (inactive) in [5]; 20.8 µM (inactive) in [6]; > 100 µM (inactive) in assay [7]. For the same compound, the GI50 is > 100 µM (inactive) in [8]; 82.6 µM (inactive) in assay [9]; 52.2 µM (inactive) in assay [10]; 75.2 µM (inactive) in assay [11]; 86.1 µM (inactive) in [12]; 71.4 µM (inactive) in [13]. The GI50 in [14] was 37.8 µM (inactive); in [15] it was 29.5 µM (inactive); in [16], 53.2 µM (inactive); in [17], 72.3 µM (inactive); in assay [20], 48.6 µM (inactive); in assay [18], 75 µM (inactive). Moreover, the GI50 in assay [19] is 72.4 µM (inactive).
In the case of `CN(C(=O)C(Cc1ccccc1)NC(=O)OC(C)(C)C)C1(C(=O)NC(Cc2ccccc2)C(=O)OCc2ccccc2)CCCC1` (stereo not drawn) (Boc-Phe-[NMeAc5c]-Phe-OBn; configuration not given here), the GI50 in assay [1] was 31.8 µM (inactive); in assay [2] it was 28.4 µM (inactive); in [3] it was 24.9 µM (inactive); in assay [4] it was 41.3 µM (inactive); in [5], 22.2 µM (inactive); in assay [6] it was 22.5 µM (inactive). Also, the GI50 in assay [7] was 25.9 µM (inactive); in assay [8], > 100 µM (inactive); in assay [9], 40.9 µM (inactive); in [11], 58.3 µM (inactive); in [12] it was 23.1 µM (inactive); in [13] it was 38 µM (inactive). Besides, the GI50 was 59.6 µM (inactive) in [14]; 57.3 µM (inactive) in assay [15]; 22.3 µM (inactive) in [16]; 20.9 µM (inactive) in assay [17]; 45.1 µM (inactive) in assay [20]; 34.8 µM (inactive) in assay [18]. In addition, the GI50 in assay [19] was 75.5 µM (inactive).
Regarding `S=c1sscc1N1CCSc2ssc(=S)c21`, the GI50 is 48.1 µM (inactive) in assay [2]; > 100 µM (inactive) in assay [3]; 88.1 µM (inactive) in assay [4]; > 100 µM (inactive) in assay [5]; > 100 µM (inactive) in [6]; 29.9 µM (inactive) in [7]. Further, the GI50 in [8] was 14.5 µM (inactive); in [9], 33.7 µM (inactive); in assay [10] it was 32.1 µM (inactive); in [11], 21.8 µM (inactive); in assay [12], > 100 µM (inactive); in assay [13], 4.66 µM (inactive). Moreover, the GI50 in assay [14] is > 100 µM (inactive); in assay [15], > 100 µM (inactive); in assay [16] it was > 100 µM (inactive); in assay [17], 13.8 µM (inactive); in [20], 28.4 µM (inactive); in [18], 24.8 µM (inactive). Besides, in [19], the GI50 is 20.8 µM (inactive).
With `COC(=O)C1CC(C=[N+](C)C)=C(SC)N1` (stereo not drawn), the GI50 in assay [1], in [2], in assay [4], in assay [5], in assay [6] and in assay [7] was > 100 µM (inactive) each time. Also, the GI50 in [8], in assay [9], in assay [10], in assay [11], in assay [12] and in [13] was > 100 µM (inactive) each time. For the same compound, the GI50 in assay [14], in [15], in assay [16], in [17], in [18] and in assay [19] was > 100 µM (inactive) in each case.
For `CC(C)(C)OC(=O)N1C(=O)C2CCCC21` (stereo not drawn), the GI50 in assay [1], in assay [2], in [3], in assay [4], in [5] and in [6] was > 100 µM (inactive) in each case. Moreover, the GI50 in [8], in assay [9], in [10], in assay [11], in [12] and in assay [13] was > 100 µM (inactive) each time. For the same compound, the GI50 in assay [14], in [15], in assay [16], in assay [17], in [20] and in assay [19] was > 100 µM (inactive) in each case.
Consider `CNC(=O)C1CCC(=O)N1CN(C(C)=O)c1ccccc1` (stereo not drawn), for which the GI50 in assay [1] was > 100 µM (inactive); in assay [2] it was > 100 µM (inactive); in [4], > 100 µM (inactive); in assay [5], 13.6 µM (inactive); in [6], > 100 µM (inactive); in [7], > 100 µM (inactive). Besides, the GI50 in assay [8], in assay [9], in assay [10], in assay [11], in assay [12] and in assay [13] was > 100 µM (inactive) throughout. Also, the GI50 in assay [14], in [15], in assay [16], in assay [17], in assay [20] and in assay [18] was > 100 µM (inactive) throughout. In addition, the GI50 in assay [19] was > 100 µM (inactive).
As to `O=c1[nH]c(=O)n(C2OC(CO)C(O)C2O)cc1OCCCc1ccccc1` (stereo not drawn), the GI50 in assay [1], in assay [2], in assay [3], in assay [4], in assay [5] and in assay [9] was > 100 µM (inactive) in each case. The GI50 in [10], in [11], in [12], in assay [13], in assay [14] and in [15] was > 100 µM (inactive) each time. The GI50 in assay [16], in [20], in assay [18] and in assay [19] was > 100 µM (inactive) each time.
